Assay results published in patent US8247211B2, “Glycopeptide antibiotics” (American Cyanamid Company, priority 2001, dated 2012).
In brackets after ≈: the same amount, converted by molar mass.

How the values were obtained:
Experiment in all cases: In vitro antibacterial evaluation: minimum inhibitory concentration (MIC), broth dilution method
Type in all cases: cell-based
[1] = test system: Staphylococcus sp.; conditions: broth dilution, 18 hours at 35° C.
Procedure: (§1) The minimum inhibitory concentration (MIC), the lowest concentration of the antibiotic which inhibits growth of the test organism, is determined by the broth dilution method using Muller-Hinton II […] (Baltimore Biological Laboratories) following the recommendations of the National Committee for Clinical Laboratory Standards [Methods for dilution antimicrobial susceptibility tests for bacteria that grow aerobically, approved standard M7-A2, National Committee for Clinical Laboratory Standards, Villanova, Pa].
(§2) An inoculum level of 5×10^5 CFU/mL, and a range of antibiotic concentrations (64-0.06 μg/mL) is used. […] The test organisms include a spectrum of Gram-positive bacteria comprised of Staphylococcus sp., Streptococcus sp. and Enterococcus sp. These organisms include recent clinical isolates that are resistant to methicillin, penicillin and/or vancomycin.

[2] = test system: Enterococcus sp.
Procedure: as §1, §2

[3] = test system: Escherichia coli
Procedure: as §1, §2

[4] = test system: Streptococcus sp.
Procedure: as §1, §2

- MIC Coagulase Negative Staphylococcus (GC 4547) ([1]; 5×10^5 CFU/mL): 1 µg/mL (≈ 0.698 µM)
- MIC Coagulase Negative Staphylococcus (GC 4548) ([1]; 5×10^5 CFU/mL): <0.5 µg/mL
- MIC Coagulase Negative Staphylococcus (GC 4549) ([1]; 5×10^5 CFU/mL): 1 µg/mL (≈ 0.698 µM)
- MIC Coagulase Negative Staphylococcus (GC 4551) ([1]; 5×10^5 CFU/mL): <0.5 µg/mL
- MIC Coagulase Negative Staphylococcus (GC 6257) ([1]; 5×10^5 CFU/mL): 0.5 µg/mL (≈ 0.349 µM)
- MIC Staphylococcus aureus (ATCC 29213) ([1]; 5×10^5 CFU/mL): 1 µg/mL (≈ 0.698 µM)
- MIC Staphylococcus aureus (GC 1131) ([1]; 5×10^5 CFU/mL): <0.5 µg/mL
- MIC Staphylococcus aureus (GC 3051) ([1]; 5×10^5 CFU/mL): 1 µg/mL (≈ 0.698 µM)
- MIC Staphylococcus aureus (GC 3053) ([1]; 5×10^5 CFU/mL): 1 µg/mL (≈ 0.698 µM)
- MIC Staphylococcus aureus (GC 4541) ([1]; 5×10^5 CFU/mL): <0.5 µg/mL
- MIC Staphylococcus aureus (GC 4542) ([1]; 5×10^5 CFU/mL): <0.5 µg/mL
- MIC Staphylococcus aureus (GC 4544) ([1]; 5×10^5 CFU/mL): 1 µg/mL (≈ 0.698 µM)
- MIC Staphylococcus aureus (GC 4545) ([1]; 5×10^5 CFU/mL): 1 µg/mL (≈ 0.698 µM)
- MIC Staphylococcus aureus-SMITH (GC 4543) ([1]; 5×10^5 CFU/mL): <0.5 µg/mL
- MIC Staphylococcus aureus (ATCC 29213) ([1]; strain ATCC 29213): 1 µg/mL (≈ 0.698 µM)
- MIC Staphylococcus aureus (GC 1131) ([1]; strain GC 1131): <0.5 µg/mL
- MIC Staphylococcus aureus (GC 3051) ([1]; strain GC 3051): 1 µg/mL (≈ 0.698 µM)
- MIC Staphylococcus aureus (GC 3053) ([1]; strain GC 3053): 1 µg/mL (≈ 0.698 µM)
- MIC Staphylococcus aureus (GC 4541) ([1]; strain GC 4541): <0.5 µg/mL
- MIC Staphylococcus aureus (GC 4542) ([1]; strain GC 4542): <0.5 µg/mL
- MIC Staphylococcus aureus-SMITH (GC 4543) ([1]; strain GC 4543): <0.5 µg/mL
- MIC Staphylococcus aureus (GC 4544) ([1]; strain GC 4544): 1 µg/mL (≈ 0.698 µM)
- MIC Staphylococcus aureus (GC 4545) ([1]; strain GC 4545): 1 µg/mL (≈ 0.698 µM)
- MIC Coagulase Negative Staphylococcus (GC 4547) ([1]; strain GC 4547): 1 µg/mL (≈ 0.698 µM)
- MIC Coagulase Negative Staphylococcus (GC 4548) ([1]; strain GC 4548): <0.5 µg/mL
- MIC Coagulase Negative Staphylococcus (GC 4549) ([1]; strain GC 4549): 1 µg/mL (≈ 0.698 µM)
- MIC Coagulase Negative Staphylococcus (GC 4551) ([1]; strain GC 4551): <0.5 µg/mL
- MIC Coagulase Negative Staphylococcus (GC 6257) ([1]; strain GC 6257): 0.5 µg/mL (≈ 0.349 µM)
- MIC Enterococcus faecalis (ATCC 29212) ([2]; strain ATCC 29212): 1 µg/mL (≈ 0.698 µM)
- MIC Enterococcus faecalis (GC 2242) ([2]; strain GC 2242): <0.5 µg/mL
- MIC Enterococcus faecium (GC 2243) ([2]; strain GC 2243): 1 µg/mL (≈ 0.698 µM)
- MIC Enterococcus faecalis (GC 2691) ([2]; strain GC 2691): 1 µg/mL (≈ 0.698 µM)
- MIC Enterococcus faecalis (GC 3059) ([2]; strain GC 3059): 1 µg/mL (≈ 0.698 µM)
- MIC Enterococcus faecalis (GC 4552) ([2]; strain GC 4552): 1 µg/mL (≈ 0.698 µM)
- MIC Enterococcus faecalis (GC 4553) ([2]; strain GC 4553): 2 µg/mL (≈ 1.4 µM)
- MIC Enterococcus faecalis (GC 4554) ([2]; strain GC 4554): 1 µg/mL (≈ 0.698 µM)
- MIC Enterococcus faecium (GC 4556) ([2]; strain GC 4556): 1 µg/mL (≈ 0.698 µM)
- MIC Enterococcus faecium (GC 4557) ([2]; strain GC 4557): 1 µg/mL (≈ 0.698 µM)
- MIC Enterococcus avium (GC 4558) ([2]; strain GC 4558): 1 µg/mL (≈ 0.698 µM)
- MIC Enterococcus faecalis (GC 6189) ([2]; strain GC 6189): 1 µg/mL (≈ 0.698 µM)
- MIC Escherichia coli (ATCC 25922) ([3]; strain ATCC 25922): 64 µg/mL (≈ 44.6 µM)
- MIC Escherichia coli (GC 4559) ([3]; strain GC 4559): 32 µg/mL (≈ 22.3 µM)
- MIC Escherichi coli (GC 4560) ([3]; strain GC 4560): <0.5 µg/mL
- MIC Streptococcus pneumoniae (ATCC 6301) ([4]; strain ATCC 6301): <0.5 µg/mL
- MIC Streptococcus pneumoniae (GC 1894) ([4]; strain GC 1894): <0.5 µg/mL
- MIC Streptococcus pyogenes (GC 4563) ([4]; strain GC 4563): 1 µg/mL (≈ 0.698 µM)
- MIC Streptococcus agalactiae (GC 4564) ([4]; strain GC 4564): <0.5 µg/mL
- MIC Streptococcus pneumoniae (GC 4565) ([4]; strain GC 4565): <0.5 µg/mL
SMILES: CC(c1ccccc1)C1NC(=O)CNC(=O)C(CO)NC(=O)C(C(O)C2CNC(=N)N2C2OC(CO)C(O)C(O)C2O)NC(=O)C(C(O)C2CNC(=N)N2)NC(=O)C(Cc2ccc(OC3OC(CO)C(OC4OC5COC(c6ccc7ccccc7c6)OC5C(O)C4O)C(O)C3O)cc2)NC1=O (stereo not drawn) [Example 145, Cyclo[glycyl-β-methylphenylalanyl-O-[4-O-[4,6-O-(2-naphthylmethylene)hexopyranosyl]-hexopyranosyl]tyrosyl-3-(2-iminoimidazolidin-4-yl)seryl-3(3-hexopyranosyl-2-iminoimidazolidin-4-yl)serylseryl]]
- MIC Staphylococcus haemolyticus (GC 4546) ([1]; 5×10^5 CFU/mL): <0.5 µg/mL
- MIC Staphylococcus haemolyticus (GC 4546) ([1]; strain GC 4546): <0.5 µg/mL
